Measured values from DBAASP.
≈ marks a conversion by molar mass, not a printed value.

Assays:
Test in all cases: ≥ marks a high value that may be exact or a test limit, other limits are often not marked, values filed in µg/mL are converted to µM
[1] = test system: Candida albicans ATCC 2002
[2] = test system: Candida albicans ATCC 90028
[3] = test system: Candida parapsilosis ATCC 22019
[4] = test system: Enterobacter cloacae ATCC 13047
[5] = test system: Enterococcus faecalis ATCC 29212
[6] = test system: Escherichia coli ATCC 25922
Escherichia coli IS117# = test system: Escherichia coli IS117#
Escherichia coli IS218# = test system: Escherichia coli IS218#
Escherichia coli IS37# = test system: Escherichia coli IS37#
[7] = test system: Klebsiella pneumoniae ATCC 700603
[8] = test system: Pseudomonas aeruginosa ATCC 27853
[9] = test system: Pseudomonas aeruginosa CMCCB 1010
[10] = test system: Pseudomonas aeruginosa IS350#
Shigella dysenteriae = test system: Shigella dysenteriae
[11] = test system: Staphylococcus aureus ATCC 25923
[12] = test system: Pseudomonas aeruginosa PAO1
[13] = test system: Pseudomonas aeruginosa PAOLC1-6
[14] = test system: Pseudomonas aeruginosa Ps1
[15] = test system: Pseudomonas aeruginosa Ps21
[16] = test system: Pseudomonas aeruginosa Ps2
[17] = test system: Pseudomonas aeruginosa Ps4
[18] = test system: Pseudomonas aeruginosa Ps64
[19] = test system: Pseudomonas aeruginosa Ps6
[20] = test system: Pseudomonas aeruginosa Ps71
[21] = test system: Pseudomonas aeruginosa Ps74
[22] = test system: Pseudomonas aeruginosa TNP004
[23] = test system: Enterococcus faecium ATCC 700221
[24] = test system: Staphylococcus aureus ATCC 33591
[25] = test system: Bacillus subtilis KCTC 1918
[26] = test system: Candida albicans TIMM 1768
[27] = test system: Pseudomonas aeruginosa KCTC 1637
[28] = test system: Salmonella typhimurium KCTC 1926
[29] = test system: Staphylococcus epidermidis KCTC 3096
[30] = test system: Trichosporon beigelii KCTC 7707
[31] = test system: Escherichia coli BW25113 ΔsbmA
[32] = test system: Escherichia coli BW25113 ΔwaaG
Escherichia coli BW25113 = test system: Escherichia coli BW25113
Bacillus subtilis = test system: Bacillus subtilis
Escherichia coli W160-37 = test system: Escherichia coli W160-37
[33] = test system: Pseudomonas putida NCIM 2102
[34] = test system: Staphylococcus aureus PEP 4/3

Q: How did the MIC [1] turn out when CC[C@H](C)[C@@H]1NC(=O)[C@H](C)NC(=O)[C@@H](NC(=O)[C@H](Cc2ccccc2)NC(=O)[C@@H](NC(=O)[C@@H](NC(=O)[C@@H]2CCCN2C(=O)[C@@H](NC(=O)[C@@H](NC(=O)[C@H](CCCCN)NC(=O)CNC(=O)[C@H](CO)NC(=O)[C@@H](NC(=O)[C@H](CS)NC(=O)[C@H](CCC(=O)O)NC(=O)[C@H](CC(C)C)NC(=O)CNC(=O)[C@@H]2CCCN2C(=O)[C@H](CC(C)C)NC(=O)[C@@H](N)Cc2ccccc2)C(C)C)[C@@H](C)CC)C(C)C)[C@@H](C)O)C(C)C)CSSC[C@@H](C(=O)O)NC(=O)[C@H]([C@@H](C)CC)NC(=O)[C@H](CCCN=C(N)N)NC(=O)[C@H]([C@@H](C)O)NC1=O [FLPGLECVSGKIVPTVFCAITRIC] was run?
A: 1.95 µM (≈ 5 µg/mL)

Q: What about the MIC [2] of the same compound?
A: 3.9 µM (≈ 9.99 µg/mL)

Q: And the MIC [3]?
A: 3.9 µM (≈ 9.99 µg/mL)

Q: What about the MIC [4] of the same compound?
A: 3.9 µM (≈ 9.99 µg/mL)

Q: What about the MIC [5] of the same compound?
A: 3.9 µM (≈ 9.99 µg/mL)

Q: And the MIC [6]?
A: 0.974 µM (≈ 2.5 µg/mL)

Q: And the MIC (Escherichia coli IS117#)?
A: 3.9 µM (≈ 9.99 µg/mL)

Q: What about the MIC (Escherichia coli IS218#) of the same compound?
A: 7.79 µM (≈ 20 µg/mL)

Q: What about the MIC (Escherichia coli IS37#) of the same compound?
A: 7.79 µM (≈ 20 µg/mL)

Q: And the MIC [7]?
A: 1.95 µM (≈ 5 µg/mL)

Q: And the MIC [8]?
A: 7.79 µM (≈ 20 µg/mL)

Q: What about the MIC [9] of the same compound?
A: 1.95 µM (≈ 5 µg/mL)

Q: What about the MIC [10] of the same compound?
A: 7.79 µM (≈ 20 µg/mL)

Q: And the MIC (Shigella dysenteriae)?
A: 3.9 µM (≈ 9.99 µg/mL)

Q: And the MIC [11]?
A: 1.95 µM (≈ 5 µg/mL)

Q: NC(=O)[C@H](CCCN=C(N)N)NC(=O)[C@H](CCCN=C(N)N)NC(=O)[C@H](Cc1c[nH]c2ccccc12)NC(=O)[C@H](Cc1ccccc1)NC(=O)[C@H](CCCN=C(N)N)NC(=O)[C@H](CCCN=C(N)N)NC(=O)[C@H](Cc1c[nH]c2ccccc12)NC(=O)[C@@H](N)Cc1ccccc1 [FWRRFWRR] was tested. Which MIC [12] did it give?
A: 34.3 µM (≈ 44.9 µg/mL)

Q: What about the MIC [13] of the same compound?
A: ≥ 34.3 µM

Q: And the MIC [14]?
A: ≥ 34.3 µM

Q: And the MIC [15]?
A: ≥ 135 µM

Q: What about the MIC [16] of the same compound?
A: ≥ 135 µM

Q: And the MIC [17]?
A: ≥ 47.7 µM

Q: And the MIC [18]?
A: ≥ 135 µM

Q: And the MIC [19]?
A: ≥ 34.3 µM

Q: What about the MIC [20] of the same compound?
A: ≥ 34.3 µM

Q: What about the MIC [21] of the same compound?
A: ≥ 135 µM

Q: And the MIC [22]?
A: ≥ 34.3 µM

Q: Which MIC [23] does the source give for CC[C@H](C)[C@H](NC(=O)[C@H](CCCCN)NC(=O)[C@H](CCCCN)NC(=O)[C@H](CC(C)C)NC(=O)[C@H](CC(C)C)NC(=O)[C@H](CCCCN)NC(=O)[C@H](CCCCN)NC(=O)[C@@H](NC(=O)[C@@H](NC(=O)[C@H](CC(=O)O)NC(=O)[C@H](Cc1ccccc1)NC(=O)[C@H](CC(C)C)NC(=O)CN)C(C)C)[C@@H](C)CC)C(=O)NCC(=O)NCC(=O)N[C@@H](CC(C)C)C(N)=O [GLFDVIKKLLKKIGGL] here?
A: 1.6 µM (≈ 2.79 µg/mL)

Q: What about the MIC [6] of the same compound?
A: 6.3 µM (≈ 11 µg/mL)

Q: And the MIC [8]?
A: 12.5 µM (≈ 21.8 µg/mL)

Q: What about the MIC [24] of the same compound?
A: 3.1 µM (≈ 5.4 µg/mL)

Q: How did the MIC [25] turn out when CC(C)C[C@H](NC(=O)[C@H](Cc1ccccc1)NC(=O)[C@H](CCCCN)NC(=O)[C@@H]1CCCN1C(=O)[C@H](CCCCN)NC(=O)[C@H](CCCCN)NC(=O)[C@H](CCCCN)NC(=O)[C@H](CCCCN)NC(=O)[C@H](CCCCN)NC(=O)[C@H](CCCCN)NC(=O)[C@H](Cc1c[nH]c2ccccc12)NC(=O)[C@@H](N)CCCCN)C(N)=O [KWKKKKKKPKFL] was run?
A: 6.25 µM (≈ 9.91 µg/mL)

Q: What about the MIC [26] of the same compound?
A: 25 µM (≈ 39.7 µg/mL)

Q: What about the MIC [27] of the same compound?
A: 3.12 µM (≈ 4.95 µg/mL)

Q: What about the MIC [28] of the same compound?
A: 2.21 µM (≈ 3.5 µg/mL)

Q: And the MIC [29]?
A: 12.5 µM (≈ 19.8 µg/mL)

Q: And the MIC [30]?
A: 25 µM (≈ 39.7 µg/mL)

Q: How did the MIC [6] turn out when CC[C@H](C)[C@H](NC(=O)[C@H](CCCN=C(N)N)NC(=O)[C@@H](N)CCCN=C(N)N)C(=O)N[C@@H](CCCN=C(N)N)C(=O)N1CCC[C@H]1C(=O)N[C@@H](CCCN=C(N)N)C(=O)N1CCC[C@H]1C(=O)N1CCC[C@H]1C(=O)N[C@@H](CCCN=C(N)N)C(=O)N[C@@H](CC(C)C)C(=O)N1CCC[C@H]1C(=O)N[C@@H](CCCN=C(N)N)C(=O)N1CCC[C@H]1C(=O)N[C@@H](CCCN=C(N)N)C(=O)N1CCC[C@H]1C(=O)N[C@@H](CCCN=C(N)N)C(=O)N1CCC[C@H]1C(=O)N[C@@H](CC(C)C)C(=O)N1CCC[C@H]1C(=O)N[C@@H](Cc1ccc(O)cc1)C(=O)N1CCC[C@H]1C(=O)N[C@@H](CCCN=C(N)N)C(=O)N1CCC[C@H]1C(=O)O [RRIRPRPPRLPRPRPRPLPYPRP] was run?
A: 1 µM (≈ 2.9 µg/mL)

Q: What about the MIC [31] of the same compound?
A: 8 µM (≈ 23.2 µg/mL)

Q: What about the MIC [32] of the same compound?
A: 0.5 µM (≈ 1.45 µg/mL)

Q: And the MIC (Escherichia coli BW25113)?
A: 1 µM (≈ 2.9 µg/mL)

Q: For CC[C@H](C)[C@H](NC(=O)[C@H](Cc1c[nH]c2ccccc12)NC(=O)[C@H](CCCCN)NC(=O)[C@H](CO)NC(=O)[C@H](CC(C)C)NC(=O)[C@H](Cc1ccccc1)NC(=O)[C@@H](NC(=O)[C@H](CCC(=O)O)NC(=O)[C@H](CC(C)C)NC(=O)[C@H](CC(C)C)NC(=O)[C@H](CCCCN)NC(=O)[C@@H]1CCCN1C(=O)[C@H](CC(N)=O)NC(=O)[C@H](C)NC(=O)[C@H](CC(C)C)NC(=O)[C@H](CCCN=C(N)N)NC(=O)[C@H](CC(N)=O)NC(=O)[C@H](C)NC(=O)[C@H](CC(C)C)NC(=O)[C@H](CCCCN)NC(=O)[C@H](C)NC(=O)[C@H](Cc1ccc(O)cc1)NC(=O)[C@H](CCCN=C(N)N)NC(=O)[C@H](CO)NC(=O)[C@H](CC(C)C)NC(=O)[C@@H](N)CO)[C@@H](C)O)C(=O)NCC(=O)O [SLSRYAKLANRLANPKLLETFLSKWIG], which MIC (Bacillus subtilis) is on record?
A: 4.58 µM (≈ 14.1 µg/mL)

Q: What about the MIC (Escherichia coli W160-37) of the same compound?
A: 4.58 µM (≈ 14.1 µg/mL)

Q: And the MIC [33]?
A: 17.7 µM (≈ 54.8 µg/mL)

Q: And the MIC [34]?
A: 14.5 µM (≈ 44.7 µg/mL)
